Measured values from ChEMBL document CHEMBL1152723, “Remarkable enhancement in the DNA-binding ability of C2-fluoro substituted pyrrolo[2,1-c][1,4]benzodiazepines and their anticancer potential” (2009).

Experiments:
[1] = tested on: DNA; experiment: Binding affinity to calf thymus DNA assessed as change in melting temperature at a compound to DNA molar ratio of 1:5 at pH 7 by thermal denaturation assay; type: nucleic-acid assay; conditions: Bos taurus
[2] = target: T1, Type II restriction enzyme BamHI (Bacillus amyloliquefaciens) (UniProt P23940); experiment: Inhibition of Bacillus amyloliquefaciens BamH1-mediated pBR322 cleavage after 16 hrs by RED100-restriction endonuclease digestion assay
T1 sequence (whole entry): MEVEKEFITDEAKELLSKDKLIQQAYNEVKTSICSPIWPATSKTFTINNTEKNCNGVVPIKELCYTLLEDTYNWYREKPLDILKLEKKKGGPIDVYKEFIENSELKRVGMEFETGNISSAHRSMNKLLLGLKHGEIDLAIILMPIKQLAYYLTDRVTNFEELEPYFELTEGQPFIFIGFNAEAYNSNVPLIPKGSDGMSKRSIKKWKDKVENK

| ΔTm [1] [°C] | Activity [2] | SMILES |
| --- | --- | --- |
| 28.9 | Dose-dependent effect | COc1cc2c(cc1OCCCN1CCN(CCCOc3cc4c(cc3OC)C(=O)N3CC(=C(F)F)C[C@H]3C=N4)CC1)N=C[C@@H]1CC(=C(F)F)CN1C2=O |
| 18.9 |  | COc1cc2c(cc1OCCCCCOc1cc3c(cc1OC)C(=O)N1CC(F)(F)C[C@H]1C=N3)N=C[C@@H]1CC(F)(F)CN1C2=O |
| 13 |  | COc1cc2c(cc1OCCCCCN1CCN(CCCCCOc3cc4c(cc3OC)C(=O)N3CC(F)(F)C[C@H]3C=N4)CC1)N=C[C@@H]1CC(F)(F)CN1C2=O |
